# Measurements published in US20090062255A1, “TUMOR-TARGETING EVALUATION METHODOLOGY AND COMPOUNDS RELATED THERETO” (THALLION PHARMACEUTICALS INC., priority 2007, published 2009).
# Values joined by “and” are separate entries in the source; they are usually repeats but may differ in a detail not shown here. Equal values may be shown once. Read-outs that look alike come from different tables or passages of the source.
# How the values were obtained:
# [1] = system: GHA oligodendroglioma cell line; assay: MTT cytotoxicity, GHA cell line; type: cell-based; settings: 96 h, Human
# Protocol: (§1) The cytotoxic activity of Compound 1 was further evaluated using a panel of brain tumor cell lines. This study was performed in collaboration with INSERM (Grenoble, France). Tumor cells (5,000 to 10,000 cells per well depending on their doubling time) were plated in 96-well flat-bottom plates and incubated for 24 hours before treatment. Tumor cells were then incubated for 96 hours with seven different concentrations of Compound 1: […], 0.01, and 0.001 μM. The in vitro cytotoxic activity was determined by a standard MTT assay.
# [2] = system: brain tumor cell lines; assay: MTT cytotoxicity, panel of brain tumor cell lines (summary); type: cell-based; settings: 96 hours; read-out: IC50 values against brain tumor cell lines, range
# Protocol: as §1
# [3] = target: T1, human MAPK2 (ERK2) (Homo sapiens, UniProt P28482); assay: Upstate Kinase Profiler, MAPK2 (ERK2); type: biochemical
# T1 construct: purchased Upstate (Kinase Profiler Service; Dundee, UK)
# T1 sequence (P28482 whole entry): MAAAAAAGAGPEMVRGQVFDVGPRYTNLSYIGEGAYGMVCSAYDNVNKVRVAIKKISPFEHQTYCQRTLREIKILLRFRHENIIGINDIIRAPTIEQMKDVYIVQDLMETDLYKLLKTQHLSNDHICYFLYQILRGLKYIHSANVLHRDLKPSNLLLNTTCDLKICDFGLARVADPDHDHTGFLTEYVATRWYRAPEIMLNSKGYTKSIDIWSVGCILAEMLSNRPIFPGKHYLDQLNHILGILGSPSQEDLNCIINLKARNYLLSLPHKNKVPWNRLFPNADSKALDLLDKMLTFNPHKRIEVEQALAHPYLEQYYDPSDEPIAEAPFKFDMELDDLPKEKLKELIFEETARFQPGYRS
# Protocol: (§2) Unlike current Ras signalling pathway inhibitors, ECO-4601 is not a direct kinase inhibitor. This was documented by evaluating the effect of ECO-4601 on human EGFR, c-RAF, MEK1, MAPK1 (ERK1) and MAPK2 (ERK2) kinase-activity (Upstate Kinase Profiler™ Service; Dundee, UK). ECO-4601 was tested at 0.5 μM and 5 μM in a final volume of 25 μL according to standard protocols developed by Upstate Ltd. Briefly, purified recombinant human enzymes were incubated with 25 mM Tris pH 7.5 containing EGTA, a specific substrate and γ-^32P-ATP. The reaction was initiated with MgATP mix and incubated for 40 minutes at RT. The reaction was stopped by the addition of 5 μL of a 3% phosphoric acid solution; aliquots were spotted on filters and counted. Detailed procedures are available on the Millipore Upstate website.
# [4] = Plasma and tissue drug levels after IV bolus and CIV infusion, rat C6 orthotopic brain tumors; type: in vivo
# Protocol: 14 days post-tumor implantation, rats received a bolus IV administration of compound 1 (30 mg/kg; 1.5 mL at 0.5 mL per min) followed by continuous IV infusion (5 mg/kg/hour; 0.7 mL/hour) over 3 hours. The animals were then sacrificed by anesthetic overdose and blood was collected by heart puncture. Brain, tumor and liver were snap-frozen in liquid nitrogen and stored at −80° C. until analysis. Blood samples was collected into K2-EDTA tubes and kept on ice for a maximum of 30 min. Samples were then centrifuged at 4° C. and 1500 g (RCF). A volume of 225 μL of rat plasma was added to clean tubes containing 25 μL of aqueous 4% w/v L-ascorbic acid and samples were mixed and stored at −80° C. until analysis.
# Binding potential (B.P.) data and Compound 1 plasma levels and tissue levels for each of the seven rats included in the study are presented in Table 23 below and summarized in FIG. 7.
# [5] = target: T2, PBR (Rattus norvegicus, UniProt P16257); assay: In vivo PBR occupancy by PET (11C-(R)-PK11195) following IV bolus and CIV infusion
# T2 construct: from tissue; host or cells: orthotopic rat C6 glioma in Sprague-Dawley rats, in vivo
# Protocol: (R)-1-(2-chlorophenyl)-N-methyl-N-(1-methyl-propyl)-3-isoquinoline carboxamide (R N-desmethyl PK11195), the precursor for the radioisotope-labeled (R) —PK11195, was purchased from ABX (Radeburg, Germany). The synthesis of ^11C-(R)-PK11195 was accomplished by a modification of the method of Camsonne et al. (J. Label. Compd. Radiopharm., 21: 985-991,1984). Briefly, ^11C-methyl iodide (^11C—CH3I) was transferred by a stream of nitrogen gas at a flow rate of 10 ml/min into a reaction medium containing 1 mg or R—N-desmethyl PK11195 previously dissolved in 0.5 mL of dimethylsulfoxide (DMSO) and about 20 mg of sodium hydroxide. The reaction was initiated at room temperature, with a bubbling of the ^11C—CH3I being continued over a 5 minute period. After bubbling was complete, the reaction mixture was left standing for 5 minutes. Purification was performed by high pressure liquid chromatography (HPLC) using a reverse-phase C18 column and a methanol:ammonium formate (20 mM) (80:20) mixture and a mobile phase at a flow rate of 3 mL/min. ^11C—(R) —PK11195 was eluted at 11 minutes and obtained with a specific radioactivity of […].
# The above study was repeated but his time ECO-4601 was administered as a bolus push followed by a continuous intra-venous (CIV) infusion of ECO-4601 obtained in the steady-state condition through the second 11C-PK11195 PET scan. […]
# To determine a mean tumor binding potential (B.P.) (baseline) and the mean B.P., the simplified reference tissue method was utilized comparing the ratio of tumor to normal brain. As a result, mean tumor binding potential (B.P.) (baseline) was calculated to be 2.19±0.16 (mean±SEM) and the mean B.P. (ECO-4601) was calculated to be 0.14±0.13 (mean±SEM).
# [6] = system: Phospho-ERK (Ras-MAPK signaling pathway); assay: ERK phosphorylation ELISA assay (FACE) in MCF-7 cells; type: cell-based, human; settings: 6 hours, EGF 100 ng/mL for 5 min
# Protocol: Human breast tumor MCF-7 cells were plated in 96-well culture plates (10,000 cells per well) in RPMI containing 10% FBS. After an overnight incubation, the medium is changed to low serum conditions (RPMI containing 0.1% FBS) for 18 h. Cells were then treated with ECO-4601 or selected analogs for 6 hours and then stimulated by the addition of EGF (100 ng/mL for 5 min) to induce the MAPK pathway. UO126 is a commercial inhibitor (Promega, Madison, Wis.) of mitogen-activated protein kinase kinase (MEK1/ERK). Following stimulation, cells were rapidly fixed, which preserved activation-specific protein modifications. Each well was then incubated with an antibody specific for Phospho-ERK or total ERK. After an one-hour incubation and several washes, cells were incubated with a secondary HRP-conjugated antibody followed by a developing solution that provided a colorimetric readout that is quantitative and reproducible. The Fast Activated Cell-based ELISA (FACE™) is commercially available (Active Motif, Carlsbad, Calif.).
# [7] = target: T3, human MAPK1 (ERK1) (Homo sapiens, UniProt P27361); assay: Upstate Kinase Profiler, MAPK1 (ERK1); type: biochemical
# T3 construct: purchased Upstate (Kinase Profiler Service; Dundee, UK)
# T3 sequence (P27361 whole entry): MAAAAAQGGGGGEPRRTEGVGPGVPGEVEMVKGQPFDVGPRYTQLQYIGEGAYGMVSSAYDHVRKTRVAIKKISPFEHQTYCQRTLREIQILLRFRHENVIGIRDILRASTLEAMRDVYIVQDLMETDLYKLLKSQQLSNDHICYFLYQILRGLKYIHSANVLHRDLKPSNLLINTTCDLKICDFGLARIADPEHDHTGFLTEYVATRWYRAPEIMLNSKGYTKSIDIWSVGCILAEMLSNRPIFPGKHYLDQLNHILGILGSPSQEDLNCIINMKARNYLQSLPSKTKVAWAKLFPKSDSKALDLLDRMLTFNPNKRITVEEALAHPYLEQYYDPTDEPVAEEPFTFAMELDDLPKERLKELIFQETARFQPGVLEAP
# Protocol: as §2
# [8] = system: C6 glioblastoma cell line; assay: MTT cytotoxicity, C6 cell line; type: cell-based; settings: 96 h, Rat
# Protocol: as §1
# [9] = individual rats, IV bolus 30 mg/kg then CIV 5 mg/kg/hour over 3 hours, listed as ECO-4601
# [10] = individual rats, IV bolus 30 mg/kg then CIV 5 mg/kg/hour, listed as ECO-4601
smiles,measurement,setting,value
"CC(C)=CCC/C(C)=C/CC/C(C)=C/CN1C(=O)c2cccc(O)c2Nc2c(O)cc(O)cc21 [Compound 1, 10-farnesyl-4,6,8-trihydroxy-5,10-dihydrodibenzo[b,e][1,4]diazepin-11-one]",IC50,[1],1600 ± 700 nM
same,IC50,[2],1600 to 8900 nM
same,direct inhibition of ERK2 kinase activity (in words),[3]; 0.5 μM and 5 μM,does not directly inhibit
same,activity at 0.5 µM,"[3]; MAPK2 (ERK2), 0.5 μM, % of enzyme activity over positive control, read-out: Kinase Activity (%) ± SD",116 ± 1%
same,activity at 5 µM,"[3]; MAPK2 (ERK2), 5 μM, % of enzyme activity over positive control, read-out: Kinase Activity (%) ± SD",110 ± 1%
same,tumor compared to liver,[4]; FIG. 7,7 fold
same,Brain Drug Level,[4]; [9],527 ng/g and 692 ng/g and 823 ng/g and 1265 ng/g and 941 ng/g and 503 ng/g and 596 ng/g
same,Liver Drug Level,[4]; [9],11.2 µg/g and 6.91 µg/g and 53.1 µg/g and 61.0 µg/g and 14.2 µg/g and 3.31 µg/g and 2.29 µg/g
same,Plasma Drug Level,[4]; [9],16000 ng/mL and 12000 ng/mL and 22000 ng/mL and 32000 ng/mL and 11500 ng/mL and 4200 ng/mL and 4100 ng/mL
same,Tumor Drug Level,[4]; [9],234 µg/g and 8.46 µg/g and 182 µg/g and 273 µg/g and 242 µg/g and 8.98 µg/g and 119 µg/g
same,concentration at 3 h,"[4]; rat, liver, intravenous, FIG. 7, read-out: liver level (mean)",24800 ng/g
same,concentration at 3 h,"[4]; rat, plasma, intravenous, FIG. 7, read-out: plasma level (mean)",16200 ng/g
same,Kp at 3 h,"[4]; rat, tumor / plasma, intravenous, FIG. 7, read-out: tumor compared to plasma",11
same,concentration at 3 h,"[4]; rat, tumor, intravenous, FIG. 7, read-out: accumulation in the tumor (mean level)",176000 ng/mL
same,mean tumor binding potential (B.P.) after compound,"[5]; CIV infusion, mean±SEM, n=6",0.14±0.13
same,"reduction of PBR occupancy for 11C-(R)-PK11195 binding, average","[5]; CIV infusion, n=6",91.67%
same,% PBR occupancy,[5]; [10],100% and 30% and 50%
same,Binding Potential (ECO-4601),[5]; [10],0 (5×) and 1.81 and 0.84
same,inhibition of phospho-ERK in the FACE ELISA assay,[6],inhibit the Ras-MAPK signaling pathway
same,direct inhibition of ERK1 kinase activity (in words),[7]; 0.5 μM and 5 μM,does not directly inhibit
same,activity at 0.5 µM,"[7]; MAPK1 (ERK1), 0.5 μM, % of enzyme activity over positive control, read-out: Kinase Activity (%) ± SD",97 ± 2%
same,activity at 5 µM,"[7]; MAPK1 (ERK1), 5 μM, % of enzyme activity over positive control, read-out: Kinase Activity (%) ± SD",73 ± 3%
same,IC50,[8],4300 ± 2300 nM
